Measured values from patent US10689383B2, “Optionally fused heterocyclyl-substituted derivatives of pyrimidine useful for the treatment of inflammatory, metabolic, oncologic and autoimmune diseases” (NUEVOLUTION A/S, priority 2014, dated 2020).

What was measured:
[1] = biological target: T1, human RORγt (Ligand Binding Domain) (Homo sapiens, UniProt P51449); assay: Fluorescence Polarization (FP) Assay; conditions: Fluorescence Polarization (FP) Assay; values given as upper bounds of activity ranges; read-out: FP activity range
T1 construct: purchased Crelux (Planegg, Germany) batch no PC5032-1
T1 sequence (P51449 269-508 limits assumed): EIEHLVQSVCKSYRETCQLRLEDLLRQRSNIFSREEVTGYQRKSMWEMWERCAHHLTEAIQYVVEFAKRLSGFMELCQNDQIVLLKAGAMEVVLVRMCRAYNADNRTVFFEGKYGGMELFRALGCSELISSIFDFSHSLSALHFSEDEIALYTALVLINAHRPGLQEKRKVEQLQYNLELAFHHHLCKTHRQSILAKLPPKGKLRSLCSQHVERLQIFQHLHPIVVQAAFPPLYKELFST
Outline: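 Binding to the ligand pocket followed by fluorescence polarization with a TAMRA-tagged RORγt ligand probe of 910 g/mole. Negative control wells received DMSO only.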

[2] = biological target: T2, yeast Gal4-DNA binding domain fused to the ligand binding domain of human RORγ (Homo sapiens, UniProt P51449); assay: RORγ Reporter Assay (Gal4); format: cell-based; conditions: values given as lower bounds of ranges; for Gal4 activity range @ 0.1 μM (% inhibition): RORγ Reporter Assay (Gal4) at 0.1 μM; for Gal4 activity range @ 1 μM (% inhibition): RORγ Reporter Assay (Gal4) at 1 μM
T2 construct: host or cells: HEK293t
T2 sequence (P51449 269-508 limits assumed): T1 sequence (P51449 269-508 limits assumed)
Description: The activity of the compounds was evaluated using a Fluorescence Polarization (FP) Assay and, in most cases, a Th17 Assay and/or RORγ Reporter assay (also referred to as Gal4 assay). The FP assay is an in vitro assay monitoring binding within the ligand binding pocket. The RORγ and the Th17 assays are both cell-based assays monitoring functional activity of the compound assayed.
Cell-based RORγ functional assays were performed using a commercially available assay product (INDIGO Biosciences, State College, Pa., USA; product # IB04001). The RORγ reporter cells are HEK293t cells transfected with one vector that provides high level constitutive expression of a hybrid protein comprised of the yeast Gal4-DNA binding domain fused to the ligand binding domain of human RORγ, and a second vector comprising the firefly luciferase cDNA functionally linked to the upstream activation sequence (UAS) of yeast Gal4. A suspension of RORγ Reporter Cells was prepared using the protocol and culture medium provided in the kit product, and 100 μl of the Reporter Cell suspension was then dispensed into wells of a white, collagen-treated, 96-well assay plate. Concentrated stocks of test compounds were prepared in DMSO, then further diluted using media provided in the kit to generate ‘2×-concentration’ treatment media. 100 μl of medium for each respective treatment concentration dispensed into triplicate assay wells, thereby combining with the reporter cells. All media formulations contained 10% charcoal stripped Fetal Bovine Serum, but are otherwise proprietary to INDIGO Biosciences. Final treatment concentrations for each test compound were 1,000 nM and 100 nM, each with 0.1% residual DMSO. Separate control treatments were media supplemented with vehicle only (0.1% DMSO) to determine the constitutive level of RORγ activity in the reporter cells, and the reference inverse-agonist ursolic acid (f.c. 6,000 nM to 8.2 nM in 3-fold decrements) to establish a positive control inverse-agonist dose response. Assay plates were placed in a 37° C., 5% CO2, 85% humidity incubator for 24 hour. Treatment media were then discarded, 100 μl of luciferase detection reagent was added to each well, and relative light units (RLUs) were quantified from each assay well using a plate reading luminometer. Values of average RLU+/−standard deviation were computed for all treatment sets, followed by the calculations of fold-reduction: [Average RLUVehicle/Average RLUTest Cmpd]. Percent-reduction of RORγ activity in response to respective test compound treatments was calculated: [100*(1−[Ave RLUTest Cmpd/Ave RLUVehicle)] where the theoretical minimum reduction (0% reduction) derives from Vehicle treatment only, no treatment compound.

How did the IC50 [1] turn out when `Cc1ccc(COc2ncnc(N3CCCC3c3ccc(C(F)(F)F)c(F)c3)c2F)cn1` (stereo not drawn) [Example 73, 5-fluoro-4-[2-[3-fluoro-4-(trifluoromethyl)phenyl]pyrrolidin-1-yl]-6-[(6-methyl-3-pyridyl)methoxy]pyrimidine] was run?
The IC50 was less than 2000 nM.

And the “Gal4 activity range @ 0.1 μM (% inhibition)” value [2]?
Its value is greater than 0 % inhibition.

What about the “Gal4 activity range @ 1 μM (% inhibition)” value [2] of the same compound?
The value was greater than 20 % inhibition.

With `Cc1ccc(COc2ncnc(N3CCCC3c3ccc(C(F)(F)F)cc3)c2F)cn1` (stereo not drawn) [Example 74, 5-fluoro-4-[(6-methyl-3-pyridyl)methoxy]-6-[2-[4-(trifluoromethyl)phenyl]pyrrolidin-1-yl]pyrimidine] as the compound, how does the IC50 [1] read?
Its IC50 is less than 2000 nM.

And the “Gal4 activity range @ 1 μM (% inhibition)” value [2]?
The value was greater than 80 % inhibition.

What does the source list for `COc1ccc(C2CCCN2c2ncnc(NCc3ccc(C)nc3)c2F)cc1` (stereo not drawn) [Example 90, 5-fluoro-6-[2-(4-methoxyphenyl)pyrrolidin-1-yl]-N-[(6-methyl-3-pyridyl)methyl]pyrimidin-4-amine]?
IC50 [1]: < 1000 nM; Gal4 activity range @ 0.1 μM (% inhibition) [2]: >0 % inhibition; Gal4 activity range @ 1 μM (% inhibition) [2]: >20 % inhibition

`CC1CCC(CNc2ncnc(N3CCCC3c3ccc(C(F)(F)F)cc3)c2F)CC1` (stereo not drawn) [Example 93, 5-fluoro-N-[(4-methylcyclohexyl)methyl]-6-[2-[4-(trifluoromethyl)phenyl]pyrrolidin-1-yl]pyrimidin-4-amine] was tested. Which IC50 [1] did it give?
Its IC50 is less than 500 nM.

And the “Gal4 activity range @ 0.1 μM (% inhibition)” value [2]?
Its value is greater than 0 % inhibition.

And the “Gal4 activity range @ 1 μM (% inhibition)” value [2]?
The value was greater than 50 % inhibition.

Which IC50 [1] does the source give for `CS(=O)(=O)Cc1ccc(CNc2ncnc(N3CCCC3c3ccc(C(F)(F)F)cc3)c2F)cc1` (stereo not drawn) [Example 95, 5-fluoro-N-[[4-(methylsulfonylmethyl)phenyl]methyl]-6-[2-[4-(trifluoromethyl)phenyl]pyrrolidin-1-yl]pyrimidin-4-amine] here?
Its IC50 is less than 1000 nM.

What about the “Gal4 activity range @ 0.1 μM (% inhibition)” value [2] of the same compound?
Its value is greater than 20 % inhibition.

And the “Gal4 activity range @ 1 μM (% inhibition)” value [2]?
The value was greater than 80 % inhibition.

Which IC50 [1] does the source give for `Cc1ccc(CNc2ncnc(N3CCCC3c3ccc(OC(F)(F)F)cc3)c2F)cn1` (stereo not drawn) [Example 97, 5-fluoro-N-[(6-methyl-3-pyridyl)methyl]-6-[2-[4-(trifluoromethoxy)phenyl]pyrrolidin-1-yl]pyrimidin-4-amine] here?
The IC50 was less than 1000 nM.

What about the “Gal4 activity range @ 0.1 μM (% inhibition)” value [2] of the same compound?
Its value is greater than 20 % inhibition.

And the “Gal4 activity range @ 1 μM (% inhibition)” value [2]?
Its value is greater than 80 % inhibition.

For `CC(C)(O)Cc1ccc(CNc2ncnc(N3CCCC3c3ccc(C(F)(F)F)cc3)c2F)cc1` (stereo not drawn) [Example 98, 1-[4-[[[5-fluoro-6-[2-[4-(trifluoromethyl)phenyl]pyrrolidin-1-yl]pyrimidin-4-yl]amino]methyl]phenyl]-2-methyl-propan-2-ol], which IC50 [1] is on record?
Its IC50 is less than 1000 nM.

What about the “Gal4 activity range @ 0.1 μM (% inhibition)” value [2] of the same compound?
Its value is greater than 20 % inhibition.

And the “Gal4 activity range @ 1 μM (% inhibition)” value [2]?
The value was greater than 80 % inhibition.

`Oc1ccc(CNc2ncnc(N3CCCC3c3ccc(C(F)(F)F)cc3)c2F)cn1` (stereo not drawn) [Example 100, 5-[[[5-fluoro-6-[2-[4-(trifluoromethyl)phenyl]pyrrolidin-1-yl]pyrimidin-4-yl]amino]methyl]pyridin-2-ol] was tested. Which IC50 [1] did it give?
Its IC50 is less than 2000 nM.

What about the “Gal4 activity range @ 1 μM (% inhibition)” value [2] of the same compound?
The value was greater than 20 % inhibition.

`Cn1cc(CNc2ncnc(N3CCCC3c3ccc(C(F)(F)F)cc3)c2F)cn1` (stereo not drawn) [Example 106, 5-fluoro-N-[(1-methylpyrazo1-4-yl)methyl]-6-[2-[4-(trifluoromethyl)phenyl]pyrrolidin-1-yl]pyrimidin-4-amine] was tested. Which IC50 [1] did it give?
The IC50 was less than 10000 nM.

And the “Gal4 activity range @ 1 μM (% inhibition)” value [2]?
Its value is greater than 20 % inhibition.

For `Cc1ccc(CNc2ncnc(N3CCCC3c3ccc(C(F)(F)F)cc3)c2F)o1` (stereo not drawn) [Example 107, 5-fluoro-N-[(5-methyl-2-furyl)methyl]-6-[2-[4-(trifluoromethyl)phenyl]pyrrolidin-1-yl]pyrimidin-4-amine], which IC50 [1] is on record?
The IC50 was less than 10000 nM.

What about the “Gal4 activity range @ 1 μM (% inhibition)” value [2] of the same compound?
The value was greater than 0 % inhibition.

For `CN1CC(CNc2ncnc(N3CCCC3c3ccc(C(F)(F)F)cc3)c2F)CC1=O` (stereo not drawn) [Example 109, 4-[[[5-fluoro-6-[2-[4-(trifluoromethyl)phenyl]pyrrolidin-1-yl]pyrimidin-4-yl]amino]methyl]-1-methyl-pyrrolidin-2-one], which IC50 [1] is on record?
Its IC50 is less than 2000 nM.

What about the “Gal4 activity range @ 1 μM (% inhibition)” value [2] of the same compound?
The value was greater than 20 % inhibition.

Which IC50 [1] does the source give for `CN(C)C(=O)C1CCC(CNc2ncnc(N3CCCC3c3ccc(C(F)(F)F)cc3)c2F)O1` (stereo not drawn) [Example 110, 5-[[[5-fluoro-6-[2-[4-(trifluoromethyl)phenyl]pyrrolidin-1-yl]pyrimidin-4-yl]amino]methyl]-N,N-dimethyl-tetrahydrofuran-2-carboxamide] here?
Its IC50 is less than 10000 nM.

And the “Gal4 activity range @ 1 μM (% inhibition)” value [2]?
Its value is greater than 0 % inhibition.

Which IC50 [1] does the source give for `COC1(CNc2ncnc(N3CCCC3c3ccc(C(F)(F)F)cc3)c2F)CCOCC1` (stereo not drawn) [Example 111, 5-fluoro-N-[(4-methoxytetrahydropyran-4-yl)methyl]-6-[2-[4-(trifluoromethyl)phenyl]pyrrolidin-1-yl]pyrimidin-4-amine] here?
Its IC50 is less than 500 nM.

What about the “Gal4 activity range @ 0.1 μM (% inhibition)” value [2] of the same compound?
Its value is greater than 50 % inhibition.

What about the “Gal4 activity range @ 1 μM (% inhibition)” value [2] of the same compound?
The value was greater than 80 % inhibition.

Which IC50 [1] does the source give for `COc1cc(CNc2ncnc(N3CCCC3c3ccc(C(F)(F)F)cc3)c2F)ccn1` (stereo not drawn) [Example 113, 5-fluoro-N-[(2-methoxy-4-pyridyl)methyl]-6-[2-[4-(trifluoromethyl)phenyl]pyrrolidin-1-yl]pyrimidin-4-amine] here?
The IC50 was less than 500 nM.

What about the “Gal4 activity range @ 0.1 μM (% inhibition)” value [2] of the same compound?
Its value is greater than 50 % inhibition.

And the “Gal4 activity range @ 1 μM (% inhibition)” value [2]?
The value was greater than 80 % inhibition.

Which results are given for `COc1ccc(CNc2ncnc(N3CCCC3c3ccc(C(F)(F)F)cc3)c2F)cn1` (stereo not drawn) [Example 114, 5-fluoro-N-[(6-methoxy-3-pyridyl)methyl]-6-[2-[4-(trifluoromethyl)phenyl]pyrrolidin-1-yl]pyrimidin-4-amine]?
IC50 [1]: < 1000 nM; Gal4 activity range @ 0.1 μM (% inhibition) [2]: >20 % inhibition; Gal4 activity range @ 1 μM (% inhibition) [2]: >80 % inhibition

`Fc1c(NCc2ccc(Cn3cncn3)cc2)ncnc1N1CCCC1c1ccc(C(F)(F)F)cc1` (stereo not drawn) [Example 115, 5-fluoro-N-[[4-(1,2,4-triazol-1-ylmethyl)phenyl]methyl]-6-[2-[4-(trifluoromethyl)phenyl]pyrrolidin-1-yl]pyrimidin-4-amine] was tested. Which IC50 [1] did it give?
The IC50 was less than 500 nM.

And the “Gal4 activity range @ 0.1 μM (% inhibition)” value [2]?
Its value is greater than 50 % inhibition.

What about the “Gal4 activity range @ 1 μM (% inhibition)” value [2] of the same compound?
The value was greater than 80 % inhibition.

Which results are given for `COc1ccc(CN(C)c2ncnc(N3CCCC3c3ccc(C(F)(F)F)cc3)c2F)cn1` (stereo not drawn) [Example 116, 5-fluoro-N-[(6-methoxy-3-pyridyl)methyl]-N-methyl-6-[2-[4-(trifluoromethyl)phenyl]pyrrolidin-1-yl]pyrimidin-4-amine]?
IC50 [1]: < 1000 nM; Gal4 activity range @ 0.1 μM (% inhibition) [2]: >20 % inhibition; Gal4 activity range @ 1 μM (% inhibition) [2]: >50 % inhibition

How did the IC50 [1] turn out when `O=C(O)Cc1ccc(CNc2ncnc(N3CCC[C@H]3c3ccc(C(F)(F)F)cc3)c2F)cc1` [Example 118, 2-[4-[[[5-fluoro-6-[(2S)-2-[4-(trifluoromethyl)phenyl]pyrrolidin-1-yl]pyrimidin-4-yl]amino]methyl]phenyl]acetic acid] was run?
Its IC50 is less than 10000 nM.

What about the “Gal4 activity range @ 0.1 μM (% inhibition)” value [2] of the same compound?
Its value is greater than 0 % inhibition.

And the “Gal4 activity range @ 1 μM (% inhibition)” value [2]?
Its value is greater than 20 % inhibition.

What does the source list for `O=C(O)Cc1ccc(CNc2ncnc(N3CCOCC3c3ccc(C(F)(F)F)cc3)c2F)cc1` (stereo not drawn) [Example 119, 2-[4-[[[5-fluoro-6-[3-[4-(trifluoromethyl)phenyl]morpholin-4-yl]pyrimidin-4-yl]amino]methyl]phenyl]acetic acid]?
IC50 [1]: < 1000 nM; Gal4 activity range @ 0.1 μM (% inhibition) [2]: >20 % inhibition; Gal4 activity range @ 1 μM (% inhibition) [2]: >80 % inhibition

What does the source list for `CC(C)CC(Nc1ncnc(N2CCCC2c2ccc(C(F)(F)F)cc2)c1F)c1nnn[nH]1` (stereo not drawn) [Example 123, 5-fluoro-N-[3-methyl-1-(1H-tetrazol-5-yl)butyl]-6-[2-[4-(trifluoromethyl)phenyl]pyrrolidin-1-yl]pyrimidin-4-amine]?
IC50 [1]: < 10000 nM; Gal4 activity range @ 0.1 μM (% inhibition) [2]: >0 % inhibition; Gal4 activity range @ 1 μM (% inhibition) [2]: >20 % inhibition
